The test system of the experiment is MV-4-11 cells. As to the kind of experiment: Gene expression microarray analysis (Affymetrix PrimeView) and GSEA. It is filed as cell-based, human. Details: RFU PODN (11730768_x_at) / Fold change /veh PODN (11730768_x_at) / RFU LINC00158 (11744669_a_at) / Fold change /veh LINC00158 (11744669_a_at) / RFU DUSP10 (11751237_a_at) / Fold change /veh DUSP10 (11751237_a_at) / RFU ID3 (11757404_x_at) / Fold change /veh ID3 (11757404_x_at) / RFU PLEKHG5 (11737974_s_at) / Fold change /veh PLEKHG5 (11737974_s_at) / RFU LRRC4B (11730491_at) / Fold change /veh LRRC4B (11730491_at) / RFU GIMAP4 (11747438_a_at) / Fold change /veh GIMAP4 (11747438_a_at) / RFU KRT8 (11758183_x_at) / Fold change /veh KRT8 (11758183_x_at) / RFU CNN1 (11734310_a_at) / Fold change /veh CNN1 (11734310_a_at) / RFU VPS37D (11726825_at) / Fold change /veh VPS37D (11726825_at) / RFU C10orf10 (11716522_x_at) / Fold change /veh C10orf10 (11716522_x_at) / RFU KIR2DL2 /// KIR2DL4 /// KIR2DL5A /// KIR2DL5B /// KIR2DS1 /// KIR2DS2 /// KIR2DS3 /// KIR2DS4 /// KIR3DL3 /// KIR3DL3 /// KIR3DS1 (11738374_at) / Fold change /veh KIR2DL2 /// KIR2DL4 /// KIR2DL5A /// KIR2DL5B /// KIR2DS1 /// KIR2DS2 /// KIR2DS3 /// KIR2DS4 /// KIR3DL3 /// KIR3DL3 /// KIR3DS1 (11738374_at) / RFU C1QL1 (11718748_at) / Fold change /veh C1QL1 (11718748_at) / RFU TMPRSS4 (11747572_a_at) / Fold change /veh TMPRSS4 (11747572_a_at) / RFU HAMP (11756126_x_at) / Fold change /veh HAMP (11756126_x_at) / RFU RNFT2 (11725882_a_at) / Fold change /veh RNFT2 (11725882_a_at) / RFU NR4A2 (11747474_a_at) / Fold change /veh NR4A2 (11747474_a_at) / RFU ABCC12 (11746883_a_at) / Fold change /veh ABCC12 (11746883_a_at) / RFU TMEM136 (11760407_x_at) / Fold change /veh TMEM136 (11760407_x_at) / RFU CLDN22 /// WWC2 (11732394_at) / Fold change /veh CLDN22 /// WWC2 (11732394_at) / RFU HLA-DPB1 (11760878_x_at) / Fold change /veh HLA-DPB1 (11760878_x_at) / RFU SPINT1 (11716480_a_at) / Fold change /veh SPINT1 (11716480_a_at) / RFU GAP43 (11754022_s_at) / Fold change /veh GAP43 (11754022_s_at) / RFU A4GNT (11735810_at) / Fold change /veh A4GNT (11735810_at) / RFU PRB3 (11715151_x_at) / Fold change /veh PRB3 (11715151_x_at) / RFU TUBB4B (11761932_at) / Fold change /veh TUBB4B (11761932_at) / RFU CAPN14 (11732068_a_at) / Fold change /veh CAPN14 (11732068_a_at) / RFU TMCC2 (11721928_a_at) / Fold change /veh TMCC2 (11721928_a_at) / RFU IRGQ (11745062_a_at) / Fold change /veh IRGQ (11745062_a_at) / RFU FAM174B (11720279_a_at) / Fold change /veh FAM174B (11720279_a_at) / RFU TMPRSS4 (11748680_a_at) / Fold change /veh TMPRSS4 (11748680_a_at) / RFU FAM212B (11763350_a_at) / Fold change /veh FAM212B (11763350_a_at) / RFU PLEKHG5 (11743358_a_at) / Fold change /veh PLEKHG5 (11743358_a_at) / RFU ZSCAN30 (11745921_a_at) / Fold change /veh ZSCAN30 (11745921_a_at) / RFU CMKLR1 (11741424_a_at) / Fold change /veh CMKLR1 (11741424_a_at) / RFU LOC101060620 /// MAPK8IP1 (11723275_at) / Fold change /veh LOC101060620 /// MAPK8IP1 (11723275_at) / RFU SPTSSB (11747773_x_at) / Fold change /veh SPTSSB (11747773_x_at) / RFU PRSS12 (11739890_at) / Fold change /veh PRSS12 (11739890_at) / RFU BIN1 (11741810_x_at) / Fold change /veh BIN1 (11741810_x_at) / RFU WNT11 (11732464_a_at) / Fold change /veh WNT11 (11732464_a_at) / RFU C10orf10 (11716521_a_at) / Fold change /veh C10orf10 (11716521_a_at) / RFU C5orf56 (11738089_at) / Fold change /veh C5orf56 (11738089_at) / RFU CYB561 (11721691_x_at) / Fold change /veh CYB561 (11721691_x_at) / RFU ANKRD19P (11752326_a_at) / Fold change /veh ANKRD19P (11752326_a_at) / RFU OR2T12 /// OR2T33 /// OR2T8 (11738714_s_at) / Fold change /veh OR2T12 /// OR2T33 /// OR2T8 (11738714_s_at) / RFU VCAN (11748164_a_at) / Fold change /veh VCAN (11748164_a_at) / RFU JSRP1 (11732532_at) / Fold change /veh JSRP1 (11732532_at) / RFU KRTAP10-11 (11738290_x_at) / Fold change /veh KRTAP10-11 (11738290_x_at) / RFU MYO3A (11730013_a_at) / Fold change /veh MYO3A (11730013_a_at) / RFU EBF3 (11725865_a_at) / Fold change /veh EBF3 (11725865_a_at) / RFU CAMK2N1 (11719241_x_at) / Fold change /veh CAMK2N1 (11719241_x_at) / RFU C5orf56 (11738088_a_at) / Fold change /veh C5orf56 (11738088_a_at) / RFU OLFML3 (11715873_a_at) / Fold change /veh OLFML3 (11715873_a_at) / RFU LOC100653217 /// NTM (11731650_a_at) / Fold change /veh LOC100653217 /// NTM (11731650_a_at) / RFU MAPK11 (11762145_a_at) / Fold change /veh MAPK11 (11762145_a_at) / RFU FIZ1 (11724087_x_at) / Fold change /veh FIZ1 (11724087_x_at) / RFU OASL (11726364_x_at) / Fold change /veh OASL (11726364_x_at) / RFU SOX15 (11748057_x_at) / Fold change /veh SOX15 (11748057_x_at) / RFU CD79A (11719716_a_at) / Fold change /veh CD79A (11719716_a_at) / RFU HIST1H1D (11736915_at) / Fold change /veh HIST1H1D (11736915_at) / RFU CASKIN2 (11723855_a_at) / Fold change /veh CASKIN2 (11723855_a_at) / RFU LOC730098 (11760151_x_at) / Fold change /veh LOC730098 (11760151_x_at) / RFU OR4N2 (11742367_at) / Fold change /veh OR4N2 (11742367_at) / RFU PRRT2 (11749266_a_at) / Fold change /veh PRRT2 (11749266_a_at) / RFU SNX32 (11753110_a_at) / Fold change /veh SNX32 (11753110_a_at) / RFU CDHR5 (11726645_a_at) / Fold change /veh CDHR5 (11726645_a_at) / RFU RCAN1 (11760418_a_at) / Fold change /veh RCAN1 (11760418_a_at) / RFU FAM167A (11723789_a_at) / Fold change /veh FAM167A (11723789_a_at) / RFU FAM26E (11764081_at) / Fold change /veh FAM26E (11764081_at) / RFU ISYNA1 (11749810_s_at) / Fold change /veh ISYNA1 (11749810_s_at) / RFU ACY1 (11761880_at) / Fold change /veh ACY1 (11761880_at) / RFU 11764098_at / Fold change /veh 11764098_at / RFU SAMD14 (11745864_x_at) / Fold change /veh SAMD14 (11745864_x_at) / RFU NPB (11741838_a_at) / Fold change /veh NPB (11741838_a_at) / RFU TMPRSS6 (11731388_a_at) / Fold change /veh TMPRSS6 (11731388_a_at) / RFU KRTAP10-2 (11738614_at) / Fold change /veh KRTAP10-2 (11738614_at) / RFU ARHGAP8 /// PRR5-ARHGAP8 (11727945_x_at) / Fold change /veh ARHGAP8 /// PRR5-ARHGAP8 (11727945_x_at) / RFU KRTAP5-7 /// NADSYN1 (11734609_at) / Fold change /veh KRTAP5-7 /// NADSYN1 (11734609_at) / RFU RASL12 (11751679_a_at) / Fold change /veh RASL12 (11751679_a_at) / RFU CDKN2B (11736163_a_at) / Fold change /veh CDKN2B (11736163_a_at) / RFU PRF1 (11729649_at) / Fold change /veh PRF1 (11729649_at) / RFU, ZNF638 /// ZNF638-IT1 / Fold change vs veh, ZNF638 /// ZNF638-IT1 / RFU, PANK3 / Fold change vs veh, PANK3 / RFU, SH3YL1 / Fold change vs veh, SH3YL1 / RFU, ZEB2 / Fold change vs veh, ZEB2 / RFU, NRIP1 / Fold change vs veh, NRIP1 / RFU, PTTG1IP / Fold change vs veh, PTTG1IP / RFU, CAPN2 / Fold change vs veh, CAPN2 / RFU, MED14 / Fold change vs veh, MED14 / RFU, SNORA58 / Fold change vs veh, SNORA58 / RFU, C1orf63 / Fold change vs veh, C1orf63 / RFU, LRRFIP1 / Fold change vs veh, LRRFIP1 / RFU, NDUFAF7 / Fold change vs veh, NDUFAF7 / RFU, SLC12A2 / Fold change vs veh, SLC12A2 / RFU, IBTK / Fold change vs veh, IBTK / RFU, ESF1 / Fold change vs veh, ESF1 / Fold change vs veh, TMEM50B / RFU, TAOK1 / Fold change vs veh, TAOK1 / RFU, ACBD3 / Fold change vs veh, ACBD3 / RFU, TMA16 / Fold change vs veh, TMA16 / RFU, RWDD3 / Fold change vs veh, RWDD3 / RFU, BCAT1 / Fold change vs veh, BCAT1 / RFU, EDEM3 / Fold change vs veh, EDEM3 / RFU, TMEM33 / Fold change vs veh, TMEM33 / RFU, WDR75 / Fold change vs veh, WDR75 / RFU, AHCTF1 / Fold change vs veh, AHCTF1 / RFU, TFRC / Fold change vs veh, TFRC / RFU, ZDHHC17 / Fold change vs veh, ZDHHC17 / RFU, NOM1 / Fold change vs veh, NOM1 / RFU, ARL8B / Fold change vs veh, ARL8B / RFU, ZBTB11 / Fold change vs veh, ZBTB11 / RFU, TAMM41 / Fold change vs veh, TAMM41 / RFU, KIAA1704 /// LOC100996395 / Fold change vs veh, KIAA1704 /// LOC100996395 / RFU, ING1 / Fold change vs veh, ING1 / RFU, TRMT61B / Fold change vs veh, TRMT61B / RFU, FUBP3 / Fold change vs veh, FUBP3 / RFU, TP53 / Fold change vs veh, TP53 / RFU, TNKS2 / Fold change vs veh, TNKS2 / RFU, ZFP14 / Fold change vs veh, ZFP14 / RFU, ACTR2 / Fold change vs veh, ACTR2 / RFU, PPP3R1 / Fold change vs veh, PPP3R1 / RFU, PIK3R1 / Fold change vs veh, PIK3R1 / RFU, HNRNPA1 / Fold change vs veh, HNRNPA1 / RFU, RNF170 / Fold change vs veh, RNF170 / RFU, ZNF28 / Fold change vs veh, ZNF28 / RFU, RNGTT / Fold change vs veh, RNGTT / RFU, OGT / Fold change vs veh, OGT / RFU, BRD1 / Fold change vs veh, BRD1 / RFU, MARS / Fold change vs veh, MARS / RFU, ZNF655 / Fold change vs veh, ZNF655 / RFU, FAHD1 / Fold change vs veh, FAHD1 / RFU, BDP1 / Fold change vs veh, BDP1 / RFU, LRRCC1 / Fold change vs veh, LRRCC1 / RFU, ARID1A / Fold change vs veh, ARID1A / RFU, ZNF146 / Fold change vs veh, ZNF146 / RFU, ZNF330 / Fold change vs veh, ZNF330 / RFU, GPN3 / Fold change vs veh, GPN3 / RFU, C9orf123 / Fold change vs veh, C9orf123 / RFU, N4BP2L2 / Fold change vs veh, N4BP2L2 / RFU, ARFIP1 / Fold change vs veh, ARFIP1 / RFU, FAM179B / Fold change vs veh, FAM179B / RFU, BCL10 / Fold change vs veh, BCL10 / RFU, UHRF1BP1L / Fold change vs veh, UHRF1BP1L / RFU, BET1 / Fold change vs veh, BET1 / RFU, CNOT2 / Fold change vs veh, CNOT2 / RFU, ZNF268 / Fold change vs veh, ZNF268 / Fold change vs veh, ZNF507 / RFU, DGCR2 / Fold change vs veh, DGCR2 / RFU, WDSUB1 / Fold change vs veh, WDSUB1 / Fold change vs veh, HSP90B1 /// MIR3652 / RFU, ADSS / Fold change vs veh, ADSS / RFU, GK / Fold change vs veh, GK / RFU, ZNF148 / Fold change vs veh, ZNF148 / RFU, TAF9 / Fold change vs veh, TAF9 / RFU, SLC1A5 / Fold change vs veh, SLC1A5 / RFU, SLMO2 / Fold change vs veh, SLMO2 / RFU, ABCC4 / Fold change vs veh, ABCC4 / RFU, LOC101060439 /// RAP1B / Fold change vs veh, LOC101060439 /// RAP1B / RFU, RFX7 / Fold change vs veh, RFX7 / RFU, GTPBP10 / Fold change vs veh, GTPBP10 / RFU, CNEP1R1 / Fold change vs veh, CNEP1R1 / RFU, BIVM-ERCC5 /// ERCC5 / Fold change vs veh, BIVM-ERCC5 /// ERCC5 / RFU, ILF3 / Fold change vs veh, ILF3 / RFU 11762660_at / Fold change /veh 11762660_at / RFU VCAN (11757783_s_at) / Fold change /veh VCAN (11757783_s_at) / RFU DDX43 (11728927_at) / Fold change /veh DDX43 (11728927_at) / RFU KRT8 (11758188_x_at) / Fold change /veh KRT8 (11758188_x_at) / RFU NKD1 (11759106_at) / Fold change /veh NKD1 (11759106_at) / RFU SRD5A1 (11742802_a_at) / Fold change /veh SRD5A1 (11742802_a_at) / RFU TPSAB1 /// TPSB2 (11721975_s_at) / Fold change /veh TPSAB1 /// TPSB2 (11721975_s_at) / RFU GSTM3 (11746129_a_at) / Fold change /veh GSTM3 (11746129_a_at) / RFU IL23R (11737362_x_at) / Fold change /veh IL23R (11737362_x_at) / RFU TMEM51 (11727254_a_at) / Fold change /veh TMEM51 (11727254_a_at) / RFU PIWIL2 (11732686_x_at) / Fold change /veh PIWIL2 (11732686_x_at) / RFU ORM1 (11744905_x_at) / Fold change /veh ORM1 (11744905_x_at) / RFU CCDC152 (11743942_at) / Fold change /veh CCDC152 (11743942_at) / RFU ECM1 (11717891_a_at) / Fold change /veh ECM1 (11717891_a_at) / RFU IL23R (11748794_a_at) / Fold change /veh IL23R (11748794_a_at) / RFU TNFAIP8L3 (11732012_x_at) / Fold change /veh TNFAIP8L3 (11732012_x_at) / RFU MBOAT4 (11741988_at) / Fold change /veh MBOAT4 (11741988_at) / RFU 11764193_at / Fold change /veh 11764193_at / RFU TMEM53 (11763286_at) / Fold change /veh TMEM53 (11763286_at) / RFU MAGEB2 (11727129_at) / Fold change /veh MAGEB2 (11727129_at) / RFU TMEM200A (11744735_a_at) / Fold change /veh TMEM200A (11744735_a_at) / RFU CCDC152 (11751479_a_at) / Fold change /veh CCDC152 (11751479_a_at) / RFU FAM211A (11726209_a_at) / Fold change /veh FAM211A (11726209_a_at) / RFU RGS16 (11746705_a_at) / Fold change /veh RGS16 (11746705_a_at) / RFU VCAN (11755009_s_at) / Fold change /veh VCAN (11755009_s_at) / RFU RHOB (11743442_s_at) / Fold change /veh RHOB (11743442_s_at) / RFU RGS16 (11720943_a_at) / Fold change /veh RGS16 (11720943_a_at) / RFU RGS16 (11720944_at) / Fold change /veh RGS16 (11720944_at) / RFU, VPS4B / Fold change vs veh, VPS4B / RFU, CREB1 / Fold change vs veh, CREB1 / RFU, DNAJC13 / Fold change vs veh, DNAJC13 / RFU, GNAQ / Fold change vs veh, GNAQ / RFU, CDK5R1 / Fold change vs veh, CDK5R1 / RFU, ZRANB3 / Fold change vs veh, ZRANB3 / RFU, CUL4A / Fold change vs veh, CUL4A / RFU, CCNY / Fold change vs veh, CCNY / RFU, UFL1 / Fold change vs veh, UFL1 / RFU, COG3 / Fold change vs veh, COG3 / RFU, DIAPH2 / Fold change vs veh, DIAPH2 / RFU, SKA2 / Fold change vs veh, SKA2 / RFU, AFF3 / Fold change vs veh, AFF3 / RFU, LMF1 / Fold change vs veh, LMF1 / RFU, IPO11 / Fold change vs veh, IPO11 / RFU, DFFB / Fold change vs veh, DFFB / RFU, FOXP1 / Fold change vs veh, FOXP1 / RFU, CARD8 / Fold change vs veh, CARD8 / RFU, STRN3 / Fold change vs veh, STRN3 / RFU, ADK / Fold change vs veh, ADK / RFU, RASSF2 / Fold change vs veh, RASSF2 / RFU, WIPF1 / Fold change vs veh, WIPF1 / RFU, LARP1B / Fold change vs veh, LARP1B / RFU, RASA1 / Fold change vs veh, RASA1 / RFU, RB1 / Fold change vs veh, RB1 / RFU, PPFIA1 / Fold change vs veh, PPFIA1 / RFU, MAT2A / Fold change vs veh, MAT2A / RFU, CCT5 / Fold change vs veh, CCT5 / RFU, WDR92 / Fold change vs veh, WDR92 / RFU, CUX1 / Fold change vs veh, CUX1 / RFU, TTC7A / Fold change vs veh, TTC7A / RFU, TMEM135 / Fold change vs veh, TMEM135 / RFU, DEPTOR / Fold change vs veh, DEPTOR / RFU, CPM / Fold change vs veh, CPM / RFU, DNAJB6 / Fold change vs veh, DNAJB6 / RFU, CACNA2D3 / Fold change vs veh, CACNA2D3 / RFU, DTX4 / Fold change vs veh, DTX4 / RFU, TFCP2 / Fold change vs veh, TFCP2 / RFU, GMCL1 /// GMCL1P1 / Fold change vs veh, GMCL1 /// GMCL1P1 / RFU, AEBP2 / Fold change vs veh, AEBP2 / RFU, SNHG1 /// SNORD22 /// SNORD25 /// SNORD26 /// SNORD27 /// SNORD28 /// SNORD29 /// SNORD31 / Fold change vs veh, SNHG1 /// SNORD22 /// SNORD25 /// SNORD26 /// SNORD27 /// SNORD28 /// SNORD29 /// SNORD31 / Fold change (Aza/veh), C12orf56 (ProbeSet 11735607_a_at) / Fold change (ACY-1035/veh), C12orf56 (ProbeSet 11735607_a_at) / Fold change (Aza/veh), FGFR1OP (ProbeSet 11751329_s_at) / Fold change (ACY-1035/veh), FGFR1OP (ProbeSet 11751329_s_at) / Fold change (Aza/veh), VPS36 (ProbeSet 11739960_a_at) / Fold change (ACY-1035/veh), VPS36 (ProbeSet 11739960_a_at) / RFU SYPL1 (11715823_x_at) / Fold change /veh SYPL1 (11715823_x_at) / RFU IGFBP7 (11715501_s_at) / Fold change /veh IGFBP7 (11715501_s_at) / RFU REEP3 (11722064_at) / Fold change /veh REEP3 (11722064_at) / RFU IGLL1 (11728026_x_at) / Fold change /veh IGLL1 (11728026_x_at): dose or concentration left out as unconfirmed. The note with it: MV-4-11 cells, 48 hours.

The text below walks through data of article PMC5218480 (PLoS ONE, 2017).

Molecules are shown by their SMILES.

Regarding `Nc1ccc(-c2cccs2)cc1NC(=O)c1ccc2c(c1)cc(C1CC1)n2CCN1CCOCC1` [ACY-1035], the “Fold change /veh NPB (11741838_a_at)” value is on record as 0.93.
